Patent US20130274276A1, “METHODS AND COMPOSITIONS FOR DETERMINING VIRUS SUSCEPTIBILITY TO NON-NUCLEOSIDE REVERSE TRANSCRIPTASE INHIBITORS” (Laboratory Corporation of America Holdings, priority 2012, published 2013)

What was measured:
Format in all cases: cell-based
[1] = system: HIV strain derived from an infected patient having a Y188L mutation; assay: PhenoSenseGT report, susceptibility analysis of patient-derived HIV; conditions: fold change in IC50 greater than the biological cutoff (BCO) for those drugs, FIG. 3
Method: FIG. 3 is a sample PhenoSenseGT® report showing the results of susceptibility analyses to various nucleoside reverse transcriptase inhibitors (NRTIs), non-nucleoside reverse transcriptase inhibitors (NNRTIs), and protease inhibitors (PIs).
Drug susceptibility tests performed with resistance test vectors were carried out using packaging host and target host cells consisting of the human embryonic kidney cell line 293. Susceptibility tests were carried out with the RTV libraries by using viral particles comprising the RTV libraries to infect a host cell in which the expression of the indicator gene is measured. The amount of indicator gene (luciferase) activity detected in infected cells is used as a direct measure of “infectivity,” i.e., the ability of the virus to complete a single round of replication. Thus, drug susceptibility can be determined by plotting the amount of luciferase activity produced by patient derived viruses in the presence of varying concentrations of the antiviral drug. By identifying the concentration of drug at which luciferase activity is half-maximum, the IC50 of the virus from which patient-derived segment(s) were obtained for the antiretroviral agent can be determined. The IC50 provides a direct measure of the susceptibility of the HIV infecting the patient to the drug. […]

[2] = system: HIV engineered to contain the Y188L reverse transcriptase mutation
Method: Site-directed mutagenesis (SDM) was performed to verify the association of Y188L with RPV resistance. The impact of this mutation was also evaluated and compared to the existing RPV RAMs (K101E/P, E138A/G/K/Q/R, V179L, Y181C/I/V, H221Y, F227C, and M230I/L) by performing in-silico site directed mutagenesis (is SDM) as a method for analyzing samples in the database that have wild type amino acids at RPV resistance positions except for the single mutation of interest. Samples were not excluded based on other NNRTI RAMs, or their NRTI and PI profile. In the is SDM analysis, fold change (FC) distribution of samples with each mutation was compared to specimens without the mutation, and the difference was evaluated for statistical significance using Mann-Whitney test. […]
Drug susceptibility tests performed with resistance test vectors were carried out using packaging host and target host cells consisting of the human embryonic kidney cell line 293. Susceptibility tests were carried out with the RTV libraries by using viral particles comprising the RTV libraries to infect a host cell in which the expression of the indicator gene is measured. The amount of indicator gene (luciferase) activity detected in infected cells is used as a direct measure of “infectivity,” i.e., the ability of the virus to complete a single round of replication. […]

[3] = system: HIV clinical specimens with Y188L and no known RPV resistance associated mutations; assay: In-silico site directed mutagenesis (isSDM) analysis of matched phenotype/genotype database of clinical specimens; conditions: 286 clinical specimens with Y188L and no known RPV resistance associated mutations; biological cutoff FC=2
Method: Rilpivirine (RPV) is a recently approved non-nucleoside reverse transcriptase inhibitor (NNRTI). […] Correlation analysis was performed among clinical specimens with both phenotypic and genotypic data (N=20,004). A novel mutation associated with phenotypic reduced rilpivirine susceptibility was identified, Y188L, as determined by a fold change in IC50 (FC) greater than the biological cutoff (BCO) for rilpivirine (FC=2).
Site-directed mutagenesis (SDM) was performed to verify the association of Y188L with RPV resistance. The impact of this mutation was also evaluated and compared to the existing RPV RAMs (K101E/P, E138A/G/K/Q/R, V179L, Y181C/I/V, H221Y, F227C, and M230I/L) by performing in-silico site directed mutagenesis (is SDM) as a method for analyzing samples in the database that have wild type amino acids at RPV resistance positions except for the single mutation of interest. Samples were not excluded based on other NNRTI RAMs, or their NRTI and PI profile. In the is SDM analysis, fold change (FC) distribution of samples with each mutation was compared to specimens without the mutation, and the difference was evaluated for statistical significance using Mann-Whitney test.
Drug susceptibility tests performed with resistance test vectors were carried out using packaging host and target host cells consisting of the human embryonic kidney cell line 293. […]

O=C1Nc2ccc(Cl)cc2[C@@](C#CC2CC2)(C(F)(F)F)O1 [efavirenz]
susceptibility of HIV with Y188L mutation (fold change in IC50 relative to biological cutoff) [1]: reduced susceptibility

Cc1cc(/C=C/C#N)cc(C)c1Nc1ccnc(Nc2ccc(C#N)cc2)n1 [rilpivirine]
fold change in IC50 (FC) of the Y188L site directed mutant [2]: 6.1 fold
median fold change in IC50 (FC) of clinical specimens with Y188L [3]: 9.2 fold

Cc1ccnc2c1NC(=O)c1cccnc1N2C1CC1 [nevirapine]
susceptibility of HIV with Y188L mutation (fold change in IC50 relative to biological cutoff) [1]: reduced susceptibility
